From PMC10408569, “Recruitment of hexahydroquinoline as anticancer scaffold targeting inhibition of wild and mutants EGFR (EGFR^WT, EGFR^T790M, and EGFR^L858R)” (Journal of Enzyme Inhibition and Medicinal Chemistry, 2023)

Legend:
[1] = test system: HT29; assay: NCI-60 anticancer screening (SRB); format: cell-based; details: Homo sapiens, HT-29; HT29, colon cancer; one dose 10 μM; read-out: Growth Inhibition Percentage (GI %)
[2] = test system: M14; assay: NCI-60 anticancer screening (SRB); format: cell-based; details: Homo sapiens; M14, melanoma; one dose 10 μM; read-out: Growth Inhibition Percentage (GI %)
[3] = test system: TK-10; assay: NCI-60 anticancer screening (SRB); format: cell-based; details: Homo sapiens; TK-10, renal cancer; one dose 10 μM; read-out: Growth Inhibition Percentage (GI %)
[4] = test system: BT-549; assay: NCI-60 anticancer screening (SRB); format: cell-based; details: Homo sapiens; BT-549, breast cancer; one dose 10 μM; read-out: Growth Inhibition Percentage (GI %)
[5] = test system: CAKI-1; assay: NCI-60 anticancer screening (SRB); format: cell-based; details: Homo sapiens; CAKI-1, renal cancer; one dose 10 μM; read-out: Growth Inhibition Percentage (GI %)
[6] = test system: OVCAR-4; assay: NCI-60 anticancer screening (SRB); format: cell-based; details: Homo sapiens; OVCAR-4, ovarian cancer; one dose 10 μM; read-out: Growth Inhibition Percentage (GI %)
[7] = test system: HS 578T; assay: NCI-60 anticancer screening (SRB); format: cell-based; details: Homo sapiens; HS 578T, breast cancer; one dose 10 μM; read-out: Growth Inhibition Percentage (GI %)
[8] = test system: UACC-62; assay: NCI-60 anticancer screening (SRB); format: cell-based; details: Homo sapiens; UACC-62, melanoma; one dose 10 μM; read-out: Growth Inhibition Percentage (GI %)
[9] = test system: RXF 393; assay: NCI-60 anticancer screening (SRB); format: cell-based; details: Homo sapiens; RXF 393, renal cancer; one dose 10 μM; read-out: Growth Inhibition Percentage (GI %)
[10] = test system: NCI-H460; assay: NCI-60 anticancer screening (SRB); format: cell-based; details: Homo sapiens; NCI-H460, NSC lung cancer; one dose 10 μM; read-out: Growth Inhibition Percentage (GI %)
[11] = test system: SN 12C; assay: NCI-60 anticancer screening (SRB); format: cell-based; details: Homo sapiens, SN12C; SN 12C, renal cancer; one dose 10 μM; read-out: Growth Inhibition Percentage (GI %)
[12] = test system: SK-MEL-2; assay: NCI-60 anticancer screening (SRB); format: cell-based; details: Homo sapiens; SK-MEL-2, melanoma; one dose 10 μM; read-out: Growth Inhibition Percentage (GI %)
[13] = test system: MCF7; assay: NCI-60 anticancer screening (SRB); format: cell-based; details: Homo sapiens; MCF7, breast cancer; one dose 10 μM; read-out: Growth Inhibition Percentage (GI %)
[14] = test system: NCI-H522; assay: NCI-60 anticancer screening (SRB); format: cell-based; details: Homo sapiens; NCI-H522, NSC lung cancer; one dose 10 μM; read-out: Growth Inhibition Percentage (GI %)
[15] = test system: KM 12; assay: NCI-60 anticancer screening (SRB); format: cell-based; details: Homo sapiens, KM12; KM 12, colon cancer; one dose 10 μM; read-out: Growth Inhibition Percentage (GI %)
[16] = test system: HOP-62; assay: NCI-60 anticancer screening (SRB); format: cell-based; details: Homo sapiens; HOP-62, NSC lung cancer; one dose 10 μM; read-out: Growth Inhibition Percentage (GI %)
[17] = test system: OVCAR-3; assay: NCI-60 anticancer screening (SRB); format: cell-based; details: Homo sapiens; OVCAR-3, ovarian cancer; one dose 10 μM; read-out: Growth Inhibition Percentage (GI %)
[18] = test system: MOLT-4; assay: NCI-60 anticancer screening (SRB); format: cell-based; details: Homo sapiens; MOLT-4, leukemia; one dose 10 μM; read-out: Growth Inhibition Percentage (GI %)
[19] = test system: NCI-H322M; assay: NCI-60 anticancer screening (SRB); format: cell-based; details: Homo sapiens, NSC lung cancer, one dose 10 μM, read-out: Growth Inhibition Percentage (GI %)
[20] = test system: NCI 60 cancer cell lines; assay: NCI-60 anticancer screening (SRB), whole panel; format: cell-based, human; details: mean across the NCI-60 panel; one dose 10 μM
[21] = test system: HCC-2998; assay: NCI-60 anticancer screening (SRB); format: cell-based; details: Homo sapiens; HCC-2998, colon cancer; one dose 10 μM; read-out: Growth Inhibition Percentage (GI %)
[22] = test system: SW-620; assay: NCI-60 anticancer screening (SRB); format: cell-based; details: Homo sapiens; SW-620, colon cancer; one dose 10 μM; read-out: Growth Inhibition Percentage (GI %)
[23] = test system: T-47D; assay: NCI-60 anticancer screening (SRB); format: cell-based; details: Homo sapiens, T47D, breast cancer, one dose 10 μM, read-out: Growth Inhibition Percentage (GI %)
[24] = test system: MDA-MB-231; assay: NCI-60 anticancer screening (SRB); format: cell-based; details: Homo sapiens; MDA-MB-231, breast cancer; one dose 10 μM; read-out: Growth Inhibition Percentage (GI %)
[25] = test system: NCI/ADR-RES; assay: NCI-60 anticancer screening (SRB); format: cell-based; details: Homo sapiens, ovarian cancer, one dose 10 μM, read-out: Growth Inhibition Percentage (GI %)
[26] = test system: 786-0; assay: NCI-60 anticancer screening (SRB); format: cell-based; details: Homo sapiens; 786-0, renal cancer; one dose 10 μM; read-out: Growth Inhibition Percentage (GI %)
[27] = test system: HL-60(TB); assay: NCI-60 anticancer screening (SRB); format: cell-based; details: Homo sapiens, leukemia, one dose 10 μM, read-out: Growth Inhibition Percentage (GI %)
[28] = test system: COLO 205; assay: NCI-60 anticancer screening (SRB); format: cell-based; details: Homo sapiens; COLO 205, colon cancer; one dose 10 μM; read-out: Growth Inhibition Percentage (GI %)
[29] = test system: LOX IMVI; assay: NCI-60 anticancer screening (SRB); format: cell-based; details: Homo sapiens, melanoma, one dose 10 μM, read-out: Growth Inhibition Percentage (GI %)
[30] = test system: UO-31; assay: NCI-60 anticancer screening (SRB); format: cell-based; details: Homo sapiens; UO-31, renal cancer; one dose 10 μM; read-out: Growth Inhibition Percentage (GI %)
[31] = test system: SK-MEL-5; assay: NCI-60 anticancer screening (SRB); format: cell-based; details: Homo sapiens; SK-MEL-5, melanoma; one dose 10 μM; read-out: Growth Inhibition Percentage (GI %)
[32] = test system: A498; assay: NCI-60 anticancer screening (SRB); format: cell-based; details: Homo sapiens; A498, renal cancer; one dose 10 μM; read-out: Growth Inhibition Percentage (GI %)

Compound: CCOC(=O)C1=C(N)N(c2ccc(Cl)cc2)C2=C(C(=O)CC(C)(C)C2)C1c1ccc(N2CCOCC2)cc1 (racemic) [8m, (±)-Ethyl 2-amino-1–(4-chlorophenyl)-7,7-dimethyl-4-[4-(morpholin-4-yl)phenyl]-5-oxo-1,4,5,6,7,8-hexahydroquinoline-3-carboxylate]
- inhibition at 10 µM [1]: < 10%
- inhibition at 10 µM [2]: < 10%
- inhibition at 10 µM [3]: < 10%
- inhibition at 10 µM [4]: 76%
- melting point: 175 to 177 °C
- inhibition at 10 µM [5]: 13%
- inhibition at 10 µM [6]: < 10%
- inhibition at 10 µM [7]: < 10%
- inhibition at 10 µM [8]: 17%
- inhibition at 10 µM [9]: < 10%
- inhibition at 10 µM [10]: < 10%
- inhibition at 10 µM [11]: < 10%
- inhibition at 10 µM [12]: < 10%
- inhibition at 10 µM [13]: < 10%
- inhibition at 10 µM [14]: 11%
- inhibition at 10 µM [15]: < 10%
- inhibition at 10 µM [16]: < 10%
- inhibition at 10 µM [17]: < 10%
- inhibition at 10 µM [18]: < 10%
- inhibition at 10 µM [19]: < 10%
- GI % mean [20]: - ((-) = GI % mean less than 10)
- inhibition at 10 µM [21]: < 10%
- inhibition at 10 µM [22]: < 10%
- inhibition at 10 µM [23]: < 10%
- inhibition at 10 µM [24]: 13%
- inhibition at 10 µM [25]: < 10%
- inhibition at 10 µM [26]: 11%
- inhibition at 10 µM [27]: < 10%
- inhibition at 10 µM [28]: < 10%
- inhibition at 10 µM [29]: < 10%
- inhibition at 10 µM [30]: 15%
- inhibition at 10 µM [31]: 20%
- inhibition at 10 µM [32]: < 10%

Compound: CCOC(=O)C1=C(N)N(c2ccc(Cl)cc2)C2=C(C(=O)CC(C)(C)C2)C1c1ccc(F)cc1 (racemic) [8b, (±)-Ethyl 2-amino-1–(4-chlorophenyl)-4–(4-fluoroyphenyl)-7,7-dimethyl-5-oxo-1,4,5,6,7,8-hexahydroquinoline-3-carboxylate]
- inhibition at 10 µM [1]: 39%
- inhibition at 10 µM [2]: 14%
- inhibition at 10 µM [3]: < 10%
- inhibition at 10 µM [4]: 13%
- melting point: 256 to 258 °C
- inhibition at 10 µM [5]: 26%
- inhibition at 10 µM [6]: 16%
- inhibition at 10 µM [7]: < 10%
- inhibition at 10 µM [8]: 40%
- inhibition at 10 µM [9]: 17%
- inhibition at 10 µM [10]: < 10%
- inhibition at 10 µM [11]: < 10%
- inhibition at 10 µM [12]: 20%
- inhibition at 10 µM [13]: 25%
- inhibition at 10 µM [14]: 40%
- inhibition at 10 µM [15]: < 10%
- inhibition at 10 µM [16]: < 10%
- inhibition at 10 µM [17]: < 10%
- inhibition at 10 µM [18]: < 10%
- inhibition at 10 µM [19]: < 10%
- GI % mean [20]: 14%
- inhibition at 10 µM [21]: < 10%
- inhibition at 10 µM [22]: < 10%
- inhibition at 10 µM [23]: 27%
- inhibition at 10 µM [24]: 19%
- inhibition at 10 µM [25]: 12%
- inhibition at 10 µM [26]: 20%
- inhibition at 10 µM [27]: 32%
- inhibition at 10 µM [28]: 13%
- inhibition at 10 µM [29]: 14%
- inhibition at 10 µM [30]: 30%
- inhibition at 10 µM [31]: 29%
- inhibition at 10 µM [32]: < 10%
